The values that follow are results of earlier work, collected in patent publication US9393243B1 (priority 2015, dated 2016).

Where a name gives a salt, the structure may show the parent alone. Read-outs that look alike come from different tables or passages of the source.

For data set [1] the following is noted: aqueous solutions, about 0.2 to about 1 weight percent.
The test system of data set [2] is a variety of bacterial pathogens. The note with it: typical value; T. L. Ke et al. 2001.

With `O=C(O)c1cn(C2CC2)c2cc(N3CCNCC3)c(F)cc2c1=O` [ciprofloxacin HCl], the “pH at which precipitation was observed” value in data set [1] (5° C.) is given as “above 5”; in data set [1] (room temperature), “above 5.5”.

gentamycin: the MIC90 result in data set [2] is “around 10 μg/gm”.

For `O=C(O)c1cn(C2CC2)c2cc(N3CCNCC3)c(F)cc2c1=O` [ciprofloxacin, 1-cyclopropyl-6-fluoro-1,4-dihydro-4-oxo-7-(1-piperazinyl)-3-quinolinecarboxylic acid], the MIC90 result in data set [2] is recorded as “around 0.5 μg/g”.
